Reference: US5395947A, “Platinum(II) complex and processes for preparing the same” (Sunkyong Industries, Ltd., priority 1991, dated 1995)

Tests used:
[1] = tested on: murine leukemia L1210 cells; assay: Growth inhibition test on cultured murine leukemia L1210 cells; assay type: cell-based; details: 48 hours, 37° C., Trypan blue viability
Summary of the method: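 L1210 cells (1×10^5) exposed to graded compound concentrations in RPMI 1640 with 10% fetal calf serum, 37° C, 5% CO2, 48 h. Viability by 0.17% Trypan blue staining, relative to untreated control cells.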

[2] = tested on: murine leukemia L1210; assay: Antitumor activity test on murine leukemia L1210 in vivo; parameters: species or system male BDF1 mice; details: days 1, 5, 9
Summary of the method: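 Intraperitoneal L1210 model: 1×10^6 cells inoculated i.p. into 6-week-old male BDF1 mice (21±3 g) on day 0, seven per group. Compounds in 0.5% CMC given i.p. on days 1, 5 and 9; vehicle-only controls. T/C % from mean survival time of treated over control.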

[3] = Test for water solubility; assay type: physicochemical; details: water
Excerpt: 3. Test for water solubility
A standard plot of UV absorbance(220 nm) vs. concentration was made; and employed to determine water-solubility.
The mixture was then passed through a 0.45 micron disposable membrane filter before dilution and UV measurement.

[4] = tested on: ICR mice; assay: Acute toxicity test; assay type: in vivo; parameters: Lethality: unit not given here; details: for Lethality: 10080 min
Summary of the method: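 Male and female 7-week-old ICR mice, 6 per group, dosed intraperitoneally. Signs and survival followed for 7 days, with autopsy of animals that died.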

CCC1(C)OC2C[NH2+][Pt-2]3([NH2+]CC2O1)[O]CC(=O)[O]3 [Example 9, (glycolato-O,O')[(4R,5R)-4,5-bis(aminomethyl)-2-ethyl-2-methyl-1,3-dioxolane]platinum(II)]
IC50 (concentration required for 50% inhibition of growth) [1]: 0.08 µg/mL
T/C (%) ([2]; 3.1 mg/kg i.p.): 148%
T/C (%) ([2]; 6.2 mg/kg i.p.): 187%
T/C (%) ([2]; 12.5 mg/kg i.p.): 231%
T/C (%) ([2]; 25 mg/kg i.p.): toxic
T/C (%) ([2]; 50 mg/kg i.p.): toxic
Solubility in water [3]: 11.6 mg/mL
Number of dead mice for 7 days ([4]; female, 41.3 mg/kg i.p.): 2/6
Number of dead mice, 1st day ([4]; female, 41.3 mg/kg i.p.): 0/6
Number of dead mice, 4th day ([4]; female, 41.3 mg/kg i.p.): 2/6
Lethality ([4]; female, 41.3 mg/kg i.p.): 0.0
Number of dead mice for 7 days ([4]; female, 54.9 mg/kg i.p.): 4/6
Number of dead mice, 1st day ([4]; female, 54.9 mg/kg i.p.): 0/6
Number of dead mice, 3rd day ([4]; female, 54.9 mg/kg i.p.): 1/6
Number of dead mice, 4th day ([4]; female, 54.9 mg/kg i.p.): 3/5
Lethality ([4]; female, 54.9 mg/kg i.p.): 50.0
Number of dead mice for 7 days ([4]; female, 71.4 mg/kg i.p.): 5/6
Number of dead mice, 1st day ([4]; female, 71.4 mg/kg i.p.): 0/6
Number of dead mice, 3rd day ([4]; female, 71.4 mg/kg i.p.): 1/6
Number of dead mice, 4th day ([4]; female, 71.4 mg/kg i.p.): 3/5
Number of dead mice, 5th day ([4]; female, 71.4 mg/kg i.p.): 1/2
Lethality ([4]; female, 71.4 mg/kg i.p.): 83.7
Number of dead mice for 7 days ([4]; female, 91.8 mg/kg i.p.): 6/6
Number of dead mice, 1st day ([4]; female, 91.8 mg/kg i.p.): 0/6
Number of dead mice, 3rd day ([4]; female, 91.8 mg/kg i.p.): 2/6
Number of dead mice, 4th day ([4]; female, 91.8 mg/kg i.p.): 4/4
Lethality ([4]; female, 91.8 mg/kg i.p.): 100.0
Number of dead mice for 7 days ([4]; male, 41.3 mg/kg i.p.): 0/6
Number of dead mice, 1st day ([4]; male, 41.3 mg/kg i.p.): 0/6
Number of dead mice, 4th day ([4]; male, 41.3 mg/kg i.p.): 2/6
Number of dead mice, 5th day ([4]; male, 41.3 mg/kg i.p.): 1/4
Lethality ([4]; male, 41.3 mg/kg i.p.): 0.0
Number of dead mice for 7 days ([4]; male, 54.9 mg/kg i.p.): 4/6
Number of dead mice, 1st day ([4]; male, 54.9 mg/kg i.p.): 0/6
Number of dead mice, 4th day ([4]; male, 54.9 mg/kg i.p.): 2/6
Number of dead mice, 5th day ([4]; male, 54.9 mg/kg i.p.): 2/4
Lethality ([4]; male, 54.9 mg/kg i.p.): 66.7
Number of dead mice for 7 days ([4]; male, 71.4 mg/kg i.p.): 5/6
Number of dead mice, 1st day ([4]; male, 71.4 mg/kg i.p.): 0/6
Number of dead mice, 4th day ([4]; male, 71.4 mg/kg i.p.): 1/6
Number of dead mice, 5th day ([4]; male, 71.4 mg/kg i.p.): 2/5
Number of dead mice, 6th day ([4]; male, 71.4 mg/kg i.p.): 2/3
Lethality ([4]; male, 71.4 mg/kg i.p.): 83.3
Number of dead mice for 7 days ([4]; male, 91.8 mg/kg i.p.): 6/6
Number of dead mice, 1st day ([4]; male, 91.8 mg/kg i.p.): 0/6
Number of dead mice, 2nd day ([4]; male, 91.8 mg/kg i.p.): 1/6
Number of dead mice, 3rd day ([4]; male, 91.8 mg/kg i.p.): 4/5
Number of dead mice, 4th day ([4]; male, 91.8 mg/kg i.p.): 1/1
Lethality ([4]; male, 91.8 mg/kg i.p.): 100.0
